Measured values: article PMC10920779, “Targeting P2Y14R protects against necroptosis of intestinal epithelial cells through PKA/CREB/RIPK1 axis in ulcerative colitis” (Nature Communications, 2024)
Values joined by “and” are separate entries in the source; they are usually repeats but may differ in a detail not shown here. Equal entries are not always repeated.

What was measured:
HT-29 cells = test: TSZ-induced necroptosis in HT-29 cells (CCK8 viability, PI/Hoechst, H&E staining); format: cell-based, human
Method: Necroptosis was induced by pretreatment with TNF‐α (20 ng·mL^−1) plus z‐VAD‐fmk (20 μM) and Smac mimetic (BV6, 2 μM) for 8 h, then stained cells with hematoxylin/eosin. For PI/Hoechst staining, cells were stained with PI and Hoechst for 20 min, then photographed with a fluorescence microscope and at least 300 cells were counted. The ratio of PI positive cells (%) = (PI positive cells) / (Hoechst positive cells) × 100%. For cell viability assay, CCK8 was added to the well and incubated for 1 − 2 h and then OD450 was measured using a multi-mode microplate reader (Cytation5, BioTek).

[1] = tested on: DSS-induced colitis in mice; test: DSS-induced acute colitis in WT mice, P2Y14R antagonist treatment (body weight, DAI, colon length, H&E, tight junction staining, TEM); format: in vivo, mouse; set-up: DAI: scale not given here; conditions: for Colitis symptoms: daily treatment, 3% DSS mice; for H&E staining: inflammatory infiltration and tissue damage / Tight junction protein expression (immunofluorescence) / Body weight loss and DAI vs DSS-exposed mice / Colon length vs mice treated with DSS only: high-dose, 20 μM; for Body weight loss and DAI vs DSS-exposed mice: daily
From the text: Male, 7-8-week-old, P2Y14R^fl/fl Vil-cre (P2Y14R^∆IEC), P2Y14R^fl/fl Lyz2-cre and WT mice with C57BL/6 J background were used to establish experimental (acute) colitis model. P2Y14R^fl/fl C57BL/6 J mice were used as control for P2Y14R^fl/fl Vil-cre (P2Y14R^∆IEC) and P2Y14R^fl/fl Lyz2-cre mice. WT C57BL/6 J mice were used for the pharmacological study of HDL-16. Colitis was induced by dextran sodium sulfate (DSS; 36-50 kDa; 3% w/v; MP Biomedicals, Solon, Ohio, USA), added to the drinking water ad libitum for 7 days. Control mice received standard drinking water. The Disease Activity Index (DAI) was evaluated daily as described previously. After 7 days of DSS treatment, mice were euthanized by carbon dioxide inhalation and the colons were measured and then processed for histological analyses, homogenized to extract protein or RNA.
The DSS group and the P2Y14R^△IEC + DSS group were rectally administered with 100 μl vehicle (saline with 0.1% DMSO). The low-dose group of mice was given 10 μM HDL-16, 100 μl per mouse, while the high-dose group was given 20 μM HDL-16, 100 μl per mouse.
For TEM, harvest fresh tissue blocks quickly within 1-3 minutes. […] Then tissues avoid light post fixed in 1% OsO4 in PBS for 2 h at room temperature. […] The samples were moved into a 65°C oven to polymerize for more than 48 h. Ultrathin sections were cut to 60-80 nm thin with an ultramicrotome UCT6 (Leica Microsystems, Vienna) and placed on 150 meshes cuprum grids (formvar carbon coated Cu grids) with formvar film. […] Micrographs were obtained with a Jeol JEM 1400 plus electron microscope (Jeol, USA) operating at 80 kV.
For histological assessment of colitis, colon specimens were fixed in 4% paraformaldehyde (PFA) and embedded in paraffin. Five-micrometer tissue sections were stained with H&E and examined for evidence of colitis as described previously. After the paraffin sections conventional dewaxing to water, put the sections into Hematoxylin solution for 3-5 min and treat the sections with Hematoxylin Differentiation solution. […] Finally, dehydrated the sections with gradient alcohol and xylene, and sealed with neutral gum. Images were captured with a microscope (BX53, Olympus).
Immunofluorescence staining was performed using paraffin-embedded tissues as mentioned before. For immunofluorescence, the paraffin slides were deparaffinized, rehydrated, blocked and treated according to a standard protocol. […] All slides were incubated with DAPI (S2110, Solarbio) for 10 min to show the location of the nucleus. Images were captured with a confocal microscope (LSM 800, Zeiss).

[2] = DSS-treated mice, group -H (high dose), Day 1
[3] = DSS-treated mice, group -L (low dose), Day 1
[4] = 100 μl per mouse, rectal, 3% DSS 7 days

## Brc1ccc(NCc2nc3ccccc3o2)cc1 [HDL-16]
HT-29 cells; TSZ-treated, pre-administrated with compound
  Necroptosis of HT-29 cells (PI staining): inhibit the necroptosis
[1]; [2]
  DAI: 0
  Weight (%): 95.5056% and 101.124% and 106.742%
[1]; DSS-treated mice, group -H (high dose), Day 2
  Weight (%): 95.5056% and 101.124% and 89.8876% and 106.742%
[1]; DSS-treated mice, group -H (high dose), Day 3
  Weight (%): 100% and 94.1176% and 94.4444% and 94.7368%
[1]; DSS-treated mice, group -H (high dose), Day 4
  Weight (%): 94.1176% and 88.2353% and 94.4444% and 88.8889% and 94.7368%
[1]; DSS-treated mice, group -H (high dose), Day 5
  Weight (%): 94.1176% and 88.2353% and 94.4444% and 83.3333% and 89.4737%
[1]; DSS-treated mice, group -H (high dose), Day 6
  Weight (%): 88.2353% and 82.3529% and 88.8889% and 83.3333% and 84.2105%
[1]; DSS-treated mice, group -H (high dose), Day 7
  Weight (%): 88.2353% and 82.3529% and 88.8889% and 77.7778% and 78.9474%
[1]; [3]
  DAI: 0
  Weight (%): 100.935% and 95.3271% and 106.542%
[1]; DSS-treated mice, group -L (low dose), Day 2
  Weight (%): 100.935% and 95.3271% and 89.7196% and 106.542%
[1]; DSS-treated mice, group -L (low dose), Day 3
  Weight (%): 94.4444% and 94.1176% and 100%
[1]; DSS-treated mice, group -L (low dose), Day 4
  Weight (%): 100% and 94.4444% and 94.1176% and 94.7368%
[1]; DSS-treated mice, group -L (low dose), Day 5
  Weight (%): 100% and 94.4444% and 88.2353% and 89.4737% and 88.8889% and 94.1176%
[1]; DSS-treated mice, group -L (low dose), Day 6
  Weight (%): 100% and 94.4444% and 88.2353% and 89.4737%
[1]; DSS-treated mice, group -L (low dose), Day 7
  Weight (%): 94.4444% and 88.8889% and 94.1176% and 84.2105% and 88.2353%
[1]
  Colitis symptoms: significantly suppressed colitis symptoms
[1]; 100 μl per mouse
  H&E staining: inflammatory infiltration and tissue damage: improved DSS-induced inflammatory infiltration and tissue damage
  Tight junction protein expression (immunofluorescence): stabilized the expression of tight junction protein Claudin-1, Occludin and ZO-1
[1]; [4]
  Body weight loss and DAI vs DSS-exposed mice: dramatically less body weight loss and lower DAI
  Colon length vs mice treated with DSS only: significantly longer
[1]; low-dose, 10 μM, 100 μl per mouse, rectal, 3% DSS 7 days
  Comparison with the DSS-treated group (colitis parameters): no significant difference

## O=C(O)c1cc(-c2ccc(C3CCNCC3)cc2)c2ccc(-c3ccc(C(F)(F)F)cc3)cc2c1 [PPTN, reference compound]
HT-29 cells; Figure 7k, TSZ-treated cells
  PI positive cell, PI intensity (%): 15.53% and 10.57% and 8.89%
[1]; DSS-treated mice, Day 1
  DAI: 0
  Weight (%): 101.124% and 106.742% and 95.5056%
[1]; DSS-treated mice, Day 2
  Weight (%): 101.124% and 106.742% and 95.5056%
[1]; DSS-treated mice, Day 3
  Weight (%): 95.5056% and 106.742%
[1]; DSS-treated mice, Day 4
  Weight (%): 89.8876% and 101.124% and 95.5056%
[1]; DSS-treated mice, Day 5
  Weight (%): 89.8876% and 101.124% and 84.2697% and 95.5056%
[1]; DSS-treated mice, Day 6
  Weight (%): 84.2697% and 95.5056% and 89.8876%
[1]; DSS-treated mice, Day 7
  Weight (%): 89.8876% and 95.5056% and 84.2697%
[1]; DSS-treated mice, Figure 7c
  Colon length (cm): 6.3 cm and 7.4 cm and 5.5 cm and 5.9 cm and 6.7 cm and 7.1 cm
[1]
  Colitis symptoms: significantly suppressed colitis symptoms
[1]; 100 μl per mouse
  H&E staining: inflammatory infiltration and tissue damage: improved DSS-induced inflammatory infiltration and tissue damage
  Tight junction protein expression (immunofluorescence): stabilized the expression of tight junction protein Claudin-1, Occludin and ZO-1
[1]; [4]
  Body weight loss and DAI vs DSS-exposed mice: dramatically less body weight loss and lower DAI
  Colon length vs mice treated with DSS only: significantly longer
